Experimental data published in patent US11459329B2, “Imidazopyridazine and imidazopyridine compounds and uses thereof” (Incyte Corporation, priority 2018, dated 2022).

The compounds below were run against ALK2 (aa 147-end) (Homo sapiens (Human), UniProt Q04771) (assay: ALK2 HTRF Assay). Conditions: not given.
Type: biochemical
Description: The enzymatic assays were conducted in white 384-well polystyrene plates in a final volume of 8 μL. The inhibitors were serially diluted in DMSO and added to the plate wells prior to addition of the other reaction components. The assays were carried out at 25° C. in the assay buffer (50 mM HEPES, pH 7.0, 10% Glycerol, 0.01% Brij50, 10 mM MgCl2, 1 mM EGTA, 5 mM DTT, and 0.01% BSA), containing 50 nM LANCE Ultra ULight™-DNA Topoisomerase 2-alpha peptide (Perkin Elmer TRF0130), and 3 μM ATP. The final concentration of DMSO in the assay was 1% and the enzyme concentration was 0.5 nM for ALK2. […] […] IC50 determination was performed by fitting percent control activity versus the log of the inhibitor concentration using the IDBS XLFit and GraphPad Prism 5.0 software.

Chain of ALK2 (aa 147-end) (Q04771 147-509): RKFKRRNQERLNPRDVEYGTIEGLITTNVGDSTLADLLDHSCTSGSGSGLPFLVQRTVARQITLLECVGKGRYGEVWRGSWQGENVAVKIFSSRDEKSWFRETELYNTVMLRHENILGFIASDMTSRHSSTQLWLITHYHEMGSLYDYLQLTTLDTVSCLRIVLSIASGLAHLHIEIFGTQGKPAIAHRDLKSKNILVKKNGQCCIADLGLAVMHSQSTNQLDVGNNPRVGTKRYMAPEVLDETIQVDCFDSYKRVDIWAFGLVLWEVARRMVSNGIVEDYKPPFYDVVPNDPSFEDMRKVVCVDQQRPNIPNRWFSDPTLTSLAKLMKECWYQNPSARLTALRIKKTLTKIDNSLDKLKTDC

Structure (SMILES)	IC50
Cc1nn2c(-c3ccnc4nc(-c5cnn(C)c5)ccc34)cnc2cc1-c1cnn(C(C)C)c1 [Example 51, 5-(7-(1-Isopropyl-1H-pyrazol-4-yl)-6-methylimidazo[1,2-b]pyridazin-3-yl)-2-(1-methyl-1H-pyrazol-4-yl)-1,8-naphthyridine]	1 to 5 nM
Cc1nn2c(-c3ccnc4cc(N5CCOCC5)ccc34)cnc2cc1-c1ccc(N2CCNCC2)cc1 [Example 20, 4-(4-(6-methyl-7-(4-(piperazin-1-yl)phenyl)imidazo[1,2-b]pyridazin-3-yl)quinolin-7-yl)morpholine]	1 to 5 nM

Same assay, conditions: 3 μM ATP, 0.5 nM ALK2, 2 hr, 25° C.; read-out: ALK2 IC50

Structure (SMILES)	IC50
Cc1nn2c(-c3ccnc4cc(-c5ccnc(CO)c5)ccc34)cnc2cc1-c1ccc(N2CCNCC2)cc1 [Example 19, (4-(4-(6-methyl-7-(4-(piperazin-1-yl)phenyl)imidazo[1,2-b]pyridazin-3-yl)quinolin-7-yl)pyridin-2-yl)methanol]	1 to 5 nM
Cc1nn2c(-c3ccnc4cc(N5CCN6C(=O)CCC6C5)ccc34)cnc2cc1-c1cnn([C@H]2CC[C@H](O)CC2)c1 (stereo partly drawn) [Example 34, 2-(4-(7-(1-((1R,4R)-4-hydroxycyclohexyl)-1H-pyrazol-4-yl)-6-methylimidazo[1,2-b]pyridazin-3-yl)quinolin-7-yl)hexahydropyrrolo[1,2-a]pyrazin-6(2H)-one]	5 to 100 nM
CC(=O)N1CCN(c2ccc3c(-c4cnc5cc(-c6ccc(N7CCNCC7)cc6)c(C)nn45)ccnc3c2)CC1 [Example 23, 1-(4-(4-(6-methyl-7-(4-(piperazin-1-yl)phenyl)imidazo[1,2-b]pyridazin-3-yl)quinolin-7-yl)piperazin-1-yl)ethan-1-one]	5 to 100 nM
Cc1cn2c(-c3ccc(C(N)=O)c(F)c3)cnc2cc1-c1cnn(C2CCNCC2)c1 [Example 36, 2-fluoro-4-(6-methyl-7-(1-(piperidin-4-yl)-1H-pyrazol-4-yl)imidazo[1,2-a]pyridin-3-yl)benzamide]	< 1 nM
N#Cc1nn2c(-c3ccnc4ccccc34)cnc2cc1-c1ccc(N2CCNCC2)cc1 [Example 6, 7-(4-(piperazin-1-yl)phenyl)-3-(quinolin-4-yl)imidazo[1,2-b]pyridazine-6-carbonitrile]	< 1 nM
CC(=O)N1C[C@@H]2C[C@H]1CN2c1ccc2c(-c3cnc4cc(-c5cnn([C@H]6CC[C@H](O)CC6)c5)c(C)nn34)ccnc2c1 [Example 33, 1-((1S,4S)-5-(4-(7-(1-((1R,4R)-4-hydroxycyclohexyl)-1H-pyrazol-4-yl)-6-methylimidazo[1,2-b]pyridazin-3-yl)quinolin-7-yl)-2,5-diazabicyclo[2.2.1]heptan-2-yl)ethan-1-one]	5 to 100 nM
CCOC(=O)N1CCN(C(=O)c2nn3c(-c4ccnc5ccccc45)cnc3cc2-c2ccc(N3CCNCC3)cc2)CC1 [Example 4, Ethyl 4-(7-(4-(piperazin-1-yl)phenyl)-3-(quinolin-4-yl)imidazo[1,2-b]pyridazine-6-carbonyl)piperazine-1-carboxylate]	5 to 100 nM
Cc1nn2c(-c3ccnc4cc(-c5ccncc5)ccc34)cnc2cc1-c1cccc(N2CCN(C)CC2)c1 [Example 13, 4-(6-Methyl-7-(3-(4-methylpiperazin-1-yl)phenyl)imidazo[1,2-b]pyridazin-3-yl)-7-(pyridin-4-yl)quinolone]	5 to 100 nM
Cc1nn2c(-c3ccnc4cc(Nc5cccnc5)ccc34)cnc2cc1-c1ccc(N2CCNCC2)cc1 [Example 22, 4-(6-methyl-7-(4-(piperazin-1-yl)phenyl)imidazo[1,2-b]pyridazin-3-yl)-N-(pyridin-3-yl)quinolin-7-amine]	< 1 nM
Cc1nn2c(-c3ccnc4c3OCCO4)cnc2cc1-c1ccc(N2CCNCC2)cc1 [Example 29, 8-(6-methyl-7-(4-(piperazin-1-yl)phenyl)imidazo[1,2-b]pyridazin-3-yl)-2,3-dihydro-[1,4]dioxino[2,3-b]pyridine]	< 1 nM

Other lines, results leading:

IC50	Structure (SMILES)
< 1 nM	CCn1cnc(-c2ccc3c(-c4cnc5cc(-c6ccc(CN(C)C)cc6)c(C)nn45)ccnc3n2)c1 [Example 54, 1-(4-(3-(7-(1-Ethyl-1H-imidazol-4-yl)-1,8-naphthyridin-4-yl)-6-methylimidazo[1,2-b]pyridazin-7-yl)phenyl)-N,N-dimethylmethanamine]
1 to 5 nM	Cc1cnn(-c2ccc3c(-c4cnc5cc(-c6ccc(CN7CC(C)(O)C7)cc6)c(C)nn45)ccnc3n2)n1 [Example 69, 3-methyl-1-(4-(6-methyl-3-(7-(4-methyl-2H-1,2,3-triazol-2-yl)-1,8-naphthyridin-4-yl)imidazo[1,2-b]pyridazin-7-yl)benzyl)azetidin-3-ol]
1 to 5 nM	Cc1cnn(-c2ccc3c(-c4cnc5cc(-c6ccc(CN7CCOCC7)cc6)c(C)nn45)ccnc3n2)n1 [Example 64, 4-(4-(6-Methyl-3-(7-(4-methyl-2H-1,2,3-triazol-2-yl)-1,8-naphthyridin-4-yl)imidazo[1,2-b]pyridazin-7-yl)benzyl)morpholine]
1 to 5 nM	Cc1nn2c(-c3ccnc4nc(-c5ccn(C)n5)ccc34)cnc2cc1-c1cnn(C(C)C)c1 [Example 45, 5-(7-(1-Isopropyl-1H-pyrazol-4-yl)-6-methylimidazo[1,2-b]pyridazin-3-yl)-2-(1-methyl-1H-pyrazol-3-yl)-1,8-naphthyridine]
1 to 5 nM	CCn1cnc(-c2ccc3c(-c4cnc5cc(-c6cnn(C(C)C)c6)c(C)nn45)ccnc3n2)c1 [Example 55, 2-(1-Ethyl-1H-imidazol-4-yl)-5-(7-(1-isopropyl-1H-pyrazol-4-yl)-6-methylimidazo[1,2-b]pyridazin-3-yl)-1,8-naphthyridine]
5 to 100 nM	Cc1nn2c(-c3ccnc4cc(N5CC6(CCOC6)C5)ccc34)cnc2cc1-c1ccc(N2CCNCC2)cc1 [Example 21, 2-(4-(6-methyl-7-(4-(piperazin-1-yl)phenyl)imidazo[1,2-b]pyridazin-3-yl)quinolin-7-yl)-6-oxa-2-azaspiro[3.4]octane]
1 to 5 nM	Cc1nn2c(-c3ccnc4cc(-c5ccncc5)ccc34)cnc2cc1-c1ccc(CN2CCC[C@H]2C)c(F)c1 [Example 15, (R)-4-(7-(3-fluoro-4-((2-methylpyrrolidin-1-yl)methyl)phenyl)-6-methylimidazo[1,2-b]pyridazin-3-yl)-7-(pyridin-4-yl)quinoline]
1 to 5 nM	CCn1cnc(-c2ccc3c(-c4cnc5cc(-c6ccc(CN7CCC7)cc6)c(C)nn45)ccnc3n2)c1 [Example 56, 5-(7-(4-(Azetidin-1-ylmethyl)phenyl)-6-methylimidazo[1,2-b]pyridazin-3-yl)-2-(1-ethyl-1H-imidazol-4-yl)-1,8-naphthyridine]
1 to 5 nM	Cc1cnn(-c2ccc3c(-c4cnc5cc(-c6ccc(CN7CCN(C)CC7)cc6)c(C)nn45)ccnc3n2)n1 [Example 70, 2-(4-methyl-2H-1,2,3-triazol-2-yl)-5-(6-methyl-7-(4-((4-methylpiperazin-1-yl)methyl)phenyl)imidazo[1,2-b]pyridazin-3-yl)-1,8-naphthyridine]
< 1 nM	Cc1cc(-c2ccc3c(-c4cnc5cc(-c6ccc(CN7CCC7)cc6)c(C)nn45)ccnc3n2)n[nH]1 [Example 48, 5-(7-(4-(Azetidin-1-ylmethyl)phenyl)-6-methylimidazo[1,2-b]pyridazin-3-yl)-2-(5-methyl-1H-pyrazol-3-yl)-1,8-naphthyridine]
< 1 nM	Cc1cnn(-c2ccc3c(-c4cnc5cc(-c6ccc(CN7CCC(C)(O)CC7)cc6)c(C)nn45)ccnc3n2)n1 [Example 68, 4-methyl-1-(4-(6-methyl-3-(7-(4-methyl-2H-1,2,3-triazol-2-yl)-1,8-naphthyridin-4-yl)imidazo[1,2-b]pyridazin-7-yl)benzyl)piperidin-4-ol]
1 to 5 nM	Cc1nn2c(-c3ccnc4cc(-c5ccn(C)n5)ccc34)cnc2cc1-c1ccc(N2CCNCC2)cc1 [Example 18, 7-(1-methyl-1H-pyrazol-3-yl)-4-(6-methyl-7-(4-(piperazin-1-yl)phenyl)imidazo[1,2-b]pyridazin-3-yl)quinoline]
< 1 nM	CCn1cnc(-c2ccc3c(-c4cnc5cc(-c6ccc(CN7CCCC7)cc6)c(C)nn45)ccnc3n2)c1 [Example 52, 2-(1-Ethyl-1H-imidazol-4-yl)-5-(6-methyl-7-(4-(pyrrolidin-1-ylmethyl)phenyl)imidazo[1,2-b]pyridazin-3-yl)-1,8-naphthyridine]
< 1 nM	Cc1cnn(-c2ccc3c(-c4cnc5cc(-c6ccc(CN7CCC(O)CC7)cc6)c(C)nn45)ccnc3n2)n1 [Example 67, 1-(4-(6-methyl-3-(7-(4-methyl-2H-1,2,3-triazol-2-yl)-1,8-naphthyridin-4-yl)imidazo[1,2-b]pyridazin-7-yl)benzyl)piperidin-4-ol]
1 to 5 nM	CCn1cnc(-c2ccc3c(-c4cnc5cc(-c6ccc(CN7CCO[C@H](CO)C7)cc6)c(C)nn45)ccnc3n2)c1 [Example 59, (S)-(4-(4-(3-(7-(1-ethyl-1H-imidazol-4-yl)-1,8-naphthyridin-4-yl)-6-methylimidazo[1,2-b]pyridazin-7-yl)benzyl)morpholin-2-yl)methanol]
< 1 nM	Cc1cnn(-c2ccc3c(-c4cnc5cc(-c6ccc(CN7CC[C@](C)(O)C7)cc6)c(C)nn45)ccnc3n2)n1 [Example 66, (S)-3-methyl-1-(4-(6-methyl-3-(7-(4-methyl-2H-1,2,3-triazol-2-yl)-1,8-naphthyridin-4-yl)imidazo[1,2-b]pyridazin-7-yl)benzyl)pyrrolidin-3-ol]
1 to 5 nM	Cc1cnn(-c2ccc3c(-c4cnc5cc(-c6ccc(CN(C)C)cc6)c(C)nn45)ccnc3n2)n1 [Example 65, N,N-dimethyl-1-(4-(6-methyl-3-(7-(4-methyl-2H-1,2,3-triazol-2-yl)-1,8-naphthyridin-4-yl)imidazo[1,2-b]pyridazin-7-yl)phenyl)methanamine]
